Data: the supplement of paper PMC10627819

Key:
[1] = system: S. pneumoniae D39V; assay: Bliss interaction score (quartile over a dose matrix) (fitness difference); higher = more antagonism (negative = synergy)
In short: (§1)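 Fitness was defined as normalised growth: OD595 at the start of stationary phase divided by the plate's robust no-drug mean and capped at 1. Single-drug fitness was inferred from combination measurements. The Bliss score is observed fitness minus the product of the single-drug values, summarised by quartiles across technical, biological and donor/recipient replicates.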

[2] = system: S. aureus DSM 20231; assay: as above
In short: as §1

[3] = system: B. subtilis 168; assay: as above
In short: as §1

[4] = system: S. aureus Newman; assay: as above
In short: as §1

[5] = system: S. pneumoniae D39V; assay: fitness (endpoint OD595 vs no drug) (fraction); higher = more growth
In short: (§2)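 Bacterial fitness was scored as optical density at the stationary-phase transition relative to the robust mean of no-drug control wells. Scores are capped at 1. The growth data were OD595 readings every 30 min for 14 h at 37 °C, background-subtracted against the first reading, from 384-well plates inoculated at OD595 0.01 in TSB, LB Lennox or CY.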

[6] = system: S. aureus DSM 20231; assay: as above
In short: as §2

[7] = system: B. subtilis 168; assay: as above
In short: as §2

[8] = system: S. aureus Newman; assay: as above
In short: as §2
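For Bliss interaction score (quartile over a dose matrix) in this document: first quartile when negative (synergy) and third quartile when positive (antagonism).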
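For fitness (endpoint OD595 vs no drug) in this document: OD595 on entry to stationary phase over no-drug wells; at most 1.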

CCC[C@@H]1C[C@@H](C(=O)N[C@@H]([C@H]2O[C@H](SC)[C@H](O)[C@@H](O)[C@H]2O)[C@H](C)Cl)N(C)C1 [Clindamycin] + CC1=C\[C@@H](O)CC(=O)Cc2nc(co2)C(=O)N2CCC=C2C(=O)O[C@H](C(C)C)[C@H](C)/C=C/C(=O)NC\C=C\1 [Virginiamycin M1]
Details | Bliss interaction score
[1] | -0.0639
[2] | -0.0802
[3] | -0.0417
[4] | -0.0298

Details | fitness
[5], first compound 0.0125 µg/mL, partner 0.5 µg/mL | 0.735
[5], first compound 0.0125 µg/mL, partner 1 µg/mL | 0.726
[5], first compound 0.0125 µg/mL, partner 2 µg/mL | 0.669
[5], first compound 0.015 µg/mL, partner 2 µg/mL | 0.806
[5], first compound 0.025 µg/mL, partner 0.5 µg/mL | 0.496
[5], first compound 0.025 µg/mL, partner 1 µg/mL | 0.471
[5], first compound 0.025 µg/mL, partner 2 µg/mL | 0.428
[5], first compound 0.03 µg/mL, partner 2 µg/mL | 0.699
[5], first compound 0.05 µg/mL, partner 0.5 µg/mL | 0.243
[5], first compound 0.05 µg/mL, partner 1 µg/mL | 0.217
[5], first compound 0.05 µg/mL, partner 2 µg/mL | 0.15
[5], first compound 0.06 µg/mL, partner 2 µg/mL | 0.624
[6], first compound 0.0625 µg/mL, partner 0.0625 µg/mL | 0.0867
[6], first compound 0.0625 µg/mL, partner 0.125 µg/mL | 0.0913
[6], first compound 0.0625 µg/mL, partner 0.25 µg/mL | 0.131
[6], first compound 0.125 µg/mL, partner 0.0625 µg/mL | 0.0395
[6], first compound 0.125 µg/mL, partner 0.125 µg/mL | 0.0407
[6], first compound 0.125 µg/mL, partner 0.25 µg/mL | 0.0815
[7], first compound 0.0625 µg/mL, partner 0.0625 µg/mL | 0.595
[7], first compound 0.0625 µg/mL, partner 0.125 µg/mL | 0.564
[7], first compound 0.0625 µg/mL, partner 0.25 µg/mL | 0.59
[7], first compound 0.125 µg/mL, partner 0.0625 µg/mL | 0.397
[7], first compound 0.125 µg/mL, partner 0.125 µg/mL | 0.364
[7], first compound 0.125 µg/mL, partner 0.25 µg/mL | 0.38
[7], first compound 0.25 µg/mL, partner 0.0625 µg/mL | 0.361
[7], first compound 0.25 µg/mL, partner 0.125 µg/mL | 0.357
[7], first compound 0.25 µg/mL, partner 0.25 µg/mL | 0.366
[8], first compound 0.0312 µg/mL, partner 0.0625 µg/mL | 0.601
[8], first compound 0.0312 µg/mL, partner 0.125 µg/mL | 0.613
[8], first compound 0.0312 µg/mL, partner 0.25 µg/mL | 0.622
[8], first compound 0.0625 µg/mL, partner 0.0625 µg/mL | 0.303
[8], first compound 0.0625 µg/mL, partner 0.125 µg/mL | 0.321
[8], first compound 0.0625 µg/mL, partner 0.25 µg/mL | 0.296
[8], first compound 0.125 µg/mL, partner 0.0625 µg/mL | 0.0641
[8], first compound 0.125 µg/mL, partner 0.125 µg/mL | 0.0861
[8], first compound 0.125 µg/mL, partner 0.25 µg/mL | 0.0756

one replicate
Details | fitness
[5], first compound 0.015 µg/mL, partner 0.15 µg/mL | 0.978
[5], first compound 0.015 µg/mL, partner 0.3 µg/mL | 0.911
[5], first compound 0.015 µg/mL, partner 0.5 µg/mL | 0.877
[5], first compound 0.015 µg/mL, partner 1 µg/mL | 0.838
[5], first compound 0.03 µg/mL, partner 0.15 µg/mL | 0.838
[5], first compound 0.03 µg/mL, partner 0.3 µg/mL | 0.82
[5], first compound 0.03 µg/mL, partner 0.5 µg/mL | 0.79
[5], first compound 0.03 µg/mL, partner 1 µg/mL | 0.652
[5], first compound 0.06 µg/mL, partner 0.15 µg/mL | 0.736
[5], first compound 0.06 µg/mL, partner 0.3 µg/mL | 0.695
[5], first compound 0.06 µg/mL, partner 0.5 µg/mL | 0.703
[5], first compound 0.06 µg/mL, partner 1 µg/mL | 0.574
[6], first compound 0.0312 µg/mL, partner 0.5 µg/mL | 0.661
[6], first compound 0.0312 µg/mL, partner 1 µg/mL | 0.597
[6], first compound 0.0625 µg/mL, partner 0.5 µg/mL | 0.316
[6], first compound 0.0625 µg/mL, partner 1 µg/mL | 0.275
[6], first compound 0.125 µg/mL, partner 0.5 µg/mL | 0.067
[6], first compound 0.125 µg/mL, partner 1 µg/mL | 0.121
[7], first compound 0.0039 µg/mL, partner 0.0625 µg/mL | 0.963
[7], first compound 0.0039 µg/mL, partner 0.125 µg/mL | 0.94
[7], first compound 0.0039 µg/mL, partner 0.25 µg/mL | 0.971
[7], first compound 0.0078 µg/mL, partner 0.0625 µg/mL | 0.459
[7], first compound 0.0078 µg/mL, partner 0.125 µg/mL | 0.881
[7], first compound 0.0078 µg/mL, partner 0.25 µg/mL | 0.862
[7], first compound 0.0156 µg/mL, partner 0.0625 µg/mL | 0.845
[7], first compound 0.0156 µg/mL, partner 0.125 µg/mL | 0.923
[7], first compound 0.0156 µg/mL, partner 0.25 µg/mL | 0.927
[8], first compound 0.0312 µg/mL, partner 0.5 µg/mL | 0.865
[8], first compound 0.0312 µg/mL, partner 1 µg/mL | 0.892
[8], first compound 0.0312 µg/mL, partner 2 µg/mL | 0.769
[8], first compound 0.0625 µg/mL, partner 0.5 µg/mL | 0.702
[8], first compound 0.0625 µg/mL, partner 1 µg/mL | 0.728
[8], first compound 0.0625 µg/mL, partner 2 µg/mL | 0.595
[8], first compound 0.125 µg/mL, partner 0.5 µg/mL | 0.491
[8], first compound 0.125 µg/mL, partner 1 µg/mL | 0.475
[8], first compound 0.125 µg/mL, partner 2 µg/mL | 0.276
